Measurements taken from publication PMC4700033, “Synergistic properties of cellulases from Clostridium cellulovorans in the presence of cellobiose” (AMB Express, 2016).

Columns and labels:
Assay in all cases: DNS reducing sugar assay on acid-swollen cellulose
Assay type in all cases: biochemical
[1] = molecular target: T1, ExgS (Clostridium cellulovorans, UniProt D9SS72); conditions: 5 mg/ml cellobiose; 0.5 % acid-swollen cellulose, 20 nmol/ml enzyme alone, 50 mM acetate pH 6.3, 2.5 mM CaCl2, 37 C
T1 construct: gene Clocel_2823; dockerin-bearing cellulosomal subunit
T1 sequence (D9SS72 1-727): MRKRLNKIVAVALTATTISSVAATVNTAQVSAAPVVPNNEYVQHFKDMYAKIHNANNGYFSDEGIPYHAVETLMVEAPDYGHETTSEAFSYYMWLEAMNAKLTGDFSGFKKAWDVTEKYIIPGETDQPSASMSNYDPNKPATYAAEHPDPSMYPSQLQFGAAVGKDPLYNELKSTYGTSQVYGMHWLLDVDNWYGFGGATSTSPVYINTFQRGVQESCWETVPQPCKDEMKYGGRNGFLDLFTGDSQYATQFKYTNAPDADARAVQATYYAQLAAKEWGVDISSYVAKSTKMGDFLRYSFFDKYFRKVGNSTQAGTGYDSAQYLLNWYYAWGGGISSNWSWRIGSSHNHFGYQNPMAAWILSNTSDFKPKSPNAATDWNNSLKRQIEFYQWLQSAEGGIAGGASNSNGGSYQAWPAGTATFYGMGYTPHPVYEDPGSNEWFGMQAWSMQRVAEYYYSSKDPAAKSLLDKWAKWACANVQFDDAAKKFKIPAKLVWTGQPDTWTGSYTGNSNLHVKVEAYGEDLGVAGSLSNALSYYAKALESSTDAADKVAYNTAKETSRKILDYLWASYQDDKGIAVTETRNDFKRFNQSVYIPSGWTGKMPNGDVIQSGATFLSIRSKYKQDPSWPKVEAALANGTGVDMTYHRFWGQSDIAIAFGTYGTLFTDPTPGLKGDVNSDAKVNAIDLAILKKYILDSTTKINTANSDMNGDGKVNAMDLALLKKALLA
From the text: DNS reducing sugar assay on acid-swollen cellulose on ExgS

[2] = molecular target: T2, EngK (Clostridium cellulovorans, UniProt D9SS70); conditions: 5 mg/ml cellobiose; 0.5 % acid-swollen cellulose, 20 nmol/ml enzyme alone, 50 mM acetate pH 6.3, 2.5 mM CaCl2, 37 C; cellobiose also main product
T2 construct: gene Clocel_2821
T2 sequence (D9SS70 1-892 limits assumed): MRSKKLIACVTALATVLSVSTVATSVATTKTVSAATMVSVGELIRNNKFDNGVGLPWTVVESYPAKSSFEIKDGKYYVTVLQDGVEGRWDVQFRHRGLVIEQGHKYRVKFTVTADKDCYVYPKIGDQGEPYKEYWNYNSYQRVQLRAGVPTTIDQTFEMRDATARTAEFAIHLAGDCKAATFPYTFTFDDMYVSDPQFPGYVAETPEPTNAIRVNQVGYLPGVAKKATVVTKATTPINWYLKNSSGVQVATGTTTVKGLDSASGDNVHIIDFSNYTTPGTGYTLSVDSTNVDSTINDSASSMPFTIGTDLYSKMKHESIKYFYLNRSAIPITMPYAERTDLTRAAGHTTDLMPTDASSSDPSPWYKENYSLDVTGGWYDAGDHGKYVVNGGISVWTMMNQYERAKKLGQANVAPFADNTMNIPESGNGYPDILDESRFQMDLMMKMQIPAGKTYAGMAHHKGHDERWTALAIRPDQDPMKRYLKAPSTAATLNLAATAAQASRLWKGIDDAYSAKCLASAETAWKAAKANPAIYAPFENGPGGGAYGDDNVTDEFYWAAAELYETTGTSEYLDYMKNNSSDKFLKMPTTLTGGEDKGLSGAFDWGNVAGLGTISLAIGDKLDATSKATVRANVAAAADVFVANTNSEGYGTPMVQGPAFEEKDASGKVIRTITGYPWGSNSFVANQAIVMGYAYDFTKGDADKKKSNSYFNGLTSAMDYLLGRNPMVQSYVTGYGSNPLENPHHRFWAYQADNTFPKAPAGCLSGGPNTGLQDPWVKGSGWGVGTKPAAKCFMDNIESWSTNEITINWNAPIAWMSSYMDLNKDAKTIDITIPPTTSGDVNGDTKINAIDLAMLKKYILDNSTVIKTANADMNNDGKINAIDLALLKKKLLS
From the text: DNS reducing sugar assay on acid-swollen cellulose on EngK

[3] = molecular target: T3, EngH (Clostridium cellulovorans, UniProt O65987); conditions: 5 mg/ml cellobiose; 0.5 % acid-swollen cellulose, 20 nmol/ml enzyme alone, 50 mM acetate pH 6.3, 2.5 mM CaCl2, 37 C
T3 construct: HisTrap purified from supernatant; trigger factor tag removed by HRV-3C protease
T3 sequence (O65987 14-715): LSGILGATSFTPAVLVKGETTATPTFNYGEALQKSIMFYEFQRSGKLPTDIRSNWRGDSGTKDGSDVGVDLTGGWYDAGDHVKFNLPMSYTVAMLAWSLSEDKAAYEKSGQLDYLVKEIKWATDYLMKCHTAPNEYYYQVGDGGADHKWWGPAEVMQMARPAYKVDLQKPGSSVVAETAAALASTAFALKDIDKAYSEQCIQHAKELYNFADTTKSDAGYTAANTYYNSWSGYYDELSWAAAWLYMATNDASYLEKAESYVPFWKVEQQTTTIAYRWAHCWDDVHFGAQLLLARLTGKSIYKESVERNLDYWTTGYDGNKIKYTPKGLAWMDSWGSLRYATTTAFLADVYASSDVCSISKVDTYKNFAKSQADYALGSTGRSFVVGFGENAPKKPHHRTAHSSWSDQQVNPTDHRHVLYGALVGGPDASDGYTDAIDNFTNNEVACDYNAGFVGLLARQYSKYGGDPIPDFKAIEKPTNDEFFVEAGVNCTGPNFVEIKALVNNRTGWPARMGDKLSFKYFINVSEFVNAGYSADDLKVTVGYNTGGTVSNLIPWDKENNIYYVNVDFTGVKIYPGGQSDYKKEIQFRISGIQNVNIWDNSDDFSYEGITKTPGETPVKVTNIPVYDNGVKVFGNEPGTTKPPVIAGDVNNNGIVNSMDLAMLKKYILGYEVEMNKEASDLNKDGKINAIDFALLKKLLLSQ
From the text: DNS reducing sugar assay on acid-swollen cellulose on EngH

Question: `OC[C@H]1O[C@@H](O[C@H]2[C@H](O)[C@@H](O)C(O)O[C@@H]2CO)[C@H](O)[C@@H](O)[C@@H]1O` (stereo partly drawn) [cellobiose] was tested. Which “Inhibition rate (%)” value [1] did it give?
Answer: 98.5%

Question: What about the “Inhibition rate (%)” value [2] of the same compound?
Answer: 90.1%

Question: And the “Inhibition rate (%)” value [3]?
Answer: 98.7%
